{"source": "ChEMBL document CHEMBL1135773", "about": "“Purine and pyrimidine (P2) receptors as drug targets” (J Med Chem, 2002)", "key": {"P2X purinoceptor 4": {"molecular_target": "T1, P2X purinoceptor 4 (Homo sapiens, UniProt Q99571)", "T1 sequence (Q99571 whole entry)": "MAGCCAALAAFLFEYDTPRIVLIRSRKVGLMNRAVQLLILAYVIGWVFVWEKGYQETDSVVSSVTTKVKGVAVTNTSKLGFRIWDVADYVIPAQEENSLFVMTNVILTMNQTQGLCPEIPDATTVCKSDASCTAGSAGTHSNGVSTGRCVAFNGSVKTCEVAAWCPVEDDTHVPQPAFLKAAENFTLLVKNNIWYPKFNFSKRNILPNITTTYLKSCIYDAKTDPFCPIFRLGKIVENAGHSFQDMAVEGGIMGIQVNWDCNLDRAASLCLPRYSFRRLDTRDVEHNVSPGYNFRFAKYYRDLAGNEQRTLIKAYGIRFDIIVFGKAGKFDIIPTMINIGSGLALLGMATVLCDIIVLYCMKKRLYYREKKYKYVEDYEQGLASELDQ", "assay": "Antagonist activity against recombinant human P2X purinoceptor 4 (P2X4)", "assay_type": "functional"}, "P2X purinoceptor 7": {"molecular_target": "T2, P2X purinoceptor 7 (Homo sapiens, UniProt Q99572)", "T2 sequence (Q99572 whole entry)": "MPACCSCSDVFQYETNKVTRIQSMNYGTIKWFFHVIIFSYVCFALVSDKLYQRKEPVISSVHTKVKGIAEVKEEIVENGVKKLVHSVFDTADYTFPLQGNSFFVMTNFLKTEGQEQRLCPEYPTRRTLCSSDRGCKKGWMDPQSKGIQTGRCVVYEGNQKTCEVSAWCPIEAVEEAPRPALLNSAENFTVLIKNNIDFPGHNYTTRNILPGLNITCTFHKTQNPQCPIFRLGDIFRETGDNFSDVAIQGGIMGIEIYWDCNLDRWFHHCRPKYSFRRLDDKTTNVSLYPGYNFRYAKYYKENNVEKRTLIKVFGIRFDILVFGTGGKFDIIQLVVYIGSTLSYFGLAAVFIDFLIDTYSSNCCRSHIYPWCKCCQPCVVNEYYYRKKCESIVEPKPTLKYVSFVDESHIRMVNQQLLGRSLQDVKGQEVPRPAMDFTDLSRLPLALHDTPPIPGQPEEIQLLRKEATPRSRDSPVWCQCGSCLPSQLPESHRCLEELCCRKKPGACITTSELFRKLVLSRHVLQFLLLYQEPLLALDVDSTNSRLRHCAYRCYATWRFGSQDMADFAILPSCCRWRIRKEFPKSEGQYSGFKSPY", "assay": "Antagonist activity against recombinant human P2X purinoceptor 7 (P2X7)", "assay_type": "functional"}}, "note": "pEC50: −log10 of the molar value."}
{"compound": "CN([C@@H](Cc1ccc(OS(=O)(=O)c2cccc3cnccc23)cc1)C(=O)N1CCN(c2ccccc2)CC1)S(=O)(=O)c1cccc2cnccc12", "values": [{"measurement": "pEC50", "setting": "P2X purinoceptor 4", "result": 4.00}, {"measurement": "pEC50", "setting": "P2X purinoceptor 7", "result": 7.47}]}
